In US20260176270A1 (Exelixis, Inc., priority 2022, published 2026):
Read-outs that look alike come from different tables or passages of the source.

Key:
PKMYT1 = molecular target: T1, PKMYT1 (Homo sapiens, UniProt Q99640); test: ADP-Glo PKMYT1 ATP-depletion assay; settings: 50 nM PKMYT1, 13.3 nM CDK1, read-out: Biochemical IC50
T1 construct: PKMYT1 (93 kD, full length, N-terminal GST tag from Signal Chem); GST (N); purchased Signal Chem
T1 sequence (Q99640 1-499): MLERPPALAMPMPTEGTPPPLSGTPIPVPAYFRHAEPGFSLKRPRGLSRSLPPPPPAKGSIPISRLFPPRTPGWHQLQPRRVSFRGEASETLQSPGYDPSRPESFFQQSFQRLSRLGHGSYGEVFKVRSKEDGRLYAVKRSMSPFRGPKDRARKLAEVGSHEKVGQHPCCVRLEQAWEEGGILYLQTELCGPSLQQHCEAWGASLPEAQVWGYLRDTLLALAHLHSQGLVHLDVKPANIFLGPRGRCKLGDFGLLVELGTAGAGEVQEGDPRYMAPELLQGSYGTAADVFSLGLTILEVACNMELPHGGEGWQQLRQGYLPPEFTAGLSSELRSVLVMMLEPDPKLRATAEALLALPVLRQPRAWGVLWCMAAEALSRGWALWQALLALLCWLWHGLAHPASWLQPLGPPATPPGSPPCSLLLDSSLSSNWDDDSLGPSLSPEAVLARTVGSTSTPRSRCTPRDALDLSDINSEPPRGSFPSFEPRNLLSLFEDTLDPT
Description: (§1) Biochemical IC50 values were determined via ADP-Glo™ assay. Cellular IC50 values were determined via AlphaLISA assay.
ADP-Glo™ PKMYT1 ATP-depletion assay. The activity of PKMYT1 is measured using a luciferase-luciferin based ATP detection reaction to quantify ATP depletion resulting from kinase-catalyzed phosphoryl transfer to CDK1 or autophosphorylation of PKMYT1. The ADP generated as a byproduct of the reaction is converted to ATP and used to drive a luciferase reaction. Test compounds were dissolved in DMSO and dispensed into Corning 3824 384-well plates prior to the experiment such that the final DMSO concentration was <1%. To the compounds was added 3 μL of PKMYT1 (93 kD, full length, N-terminal GST tag from Signal Chem). The reaction was started by the addition of 2 μL of CDK1 (58 kDa, full length, N-terminal GST tag from Signal Chem) and ATP in assay buffer (50 mM Hepes, 40 mM NaCl, 10 mM MgCl2, 1 mM DTT, 0.1 mg/mL BSA, 2.5 mM MnCl2). Final assay concentrations were 50 nM PKMYT1, 13.3 nM CDK1, and 88 µM ATP. Plates were centrifuged for 1 minute at 1000 RPM and incubated at RT for 120 minutes. After the incubation period, ADP-Glo™ reagent was added and the plates were incubated for another 40 minutes before finally adding the kinase detection reagent. 30 minutes after the addition, plates were placed on a PHERAstar® plate reader and read using the Luminescence Protocol, integration time at 0.5 seconds.

[1] = tested on: phosphorylation of CDK1 at Thr14 in HCC1806 cells; test: Cell lysate AlphaLISA assay measuring inhibition of phosphorylation of CDK1 Thr14; type: cell-based; settings: read-out: Cellular IC50
Description: as §1
Cell lysate AlphaLISA® assay measuring inhibition of phosphorylation of CDK1 Thr14. Inhibition of phosphorylation of CDK1 at Thr14 was determined using AlphaLISA® SureFire® Ultra™ Kit from Perkin Elmer (ALSU-PCDK1-A10K). HCC1806 cells were seeded at 2K cells per well (50 μl/well) in 384-well plates (Corning 3570) and stored overnight at 37° C. and 5% CO2. The following day, the compounds dissolved in DMSO were introduced to the cells and incubated for 4 hours at 37° C. and 5% CO2. The cells were then washed with PBS using Blue®Washer and 10 μl of lysis buffer containing protease inhibitor was added. The plate was placed on an orbital shaker (at 4° C.) for 30 minutes and stored overnight at −80° C. for complete lysing. The next day, the plates were thawed at room temperature for at least 30 min. Reagents were prepared in a dimmed light setting (<100 lumens). The assay was run by first adding 5 μl of the acceptor mix (reaction buffer 1: reaction buffer 2: activation buffer: acceptor beads 47:47:4:2), covering the plate with foil, shaking for 2 minutes and incubating at RT for 60 minutes. The donor mix (dilution buffer: donor beads 47:3) was then added at 5 μl per well, placed on the shaker for 2 minutes and incubated at RT for 60 minutes before reading the plates on a PHERAstar® plate reader. The results were normalized to DMSO (0% Inhibition) and 3 μM of reference compound.

| Structure (SMILES) | IC50 (PKMYT1) [µM] | IC50 ([1]; 4 hours) [µM] | IC50 ([1]; Homo sapiens, HCC1806, 4 h) [µM] |
| --- | --- | --- | --- |
| Cc1ccc2c(-c3cccc(O)c3C)c(N)c(C(N)=O)nc2c1 (single isomer, unassigned) [Compound 50, (P)-3-amino-4-(3-hydroxy-2-methylphenyl)-7-methylquinoline-2-carboxamide] | ≥ 5 | ≥ 5 |  |
| NC(=O)c1cc2nccnc2c(-c2cccc(O)c2Cl)c1N [Compound 97, 7-Amino-8-(2-chloro-3-hydroxyphenyl)quinoxaline-6-carboxamide] | < 0.05 |  | 0.05 to 0.5 |
| Cc1ccc(O)c(C)c1-c1c(N)c(C(N)=O)nc2cccnc12 (single isomer, unassigned) [Compound 9, (P)-3-Amino-4-(3-hydroxy-2,6-dimethylphenyl)-1,5-naphthyridine-2-carboxamide] | < 0.05 | < 0.05 |  |
| Cc1ccc(O)c(C)c1-c1c(N)c(C(N)=O)nc2ccc(C(F)(F)F)cc12 (single isomer, unassigned) [Compound 40, (M)-3-Amino-4-(3-hydroxy-2,6-dimethylphenyl)-6-(trifluoromethyl)quinoline-2-carboxamide] | 0.5 to 1 | 1 to 5 |  |
| COc1nc2c(-c3cccc(O)c3C)c(N)c(C(N)=O)cc2nc1C [Compound 173] | 0.05 to 0.5 | 0.05 to 0.5 |  |
| Cc1ccc(O)c(C)c1-c1cc(C(N)=O)nc2ccccc12 [Compound 12, 4-(3-Hydroxy-2,6-dimethylphenyl)quinoline-2-carboxamide] | 1 to 5 |  | 0.05 to 0.5 |
| NC(=O)c1nc2cccnc2c(-c2cccc3c2CCN3C=O)c1N [Compound 162] | ≥ 5 |  | ≥ 5 |
| Cc1ccc(O)c(C)c1-c1c(N)c(C(N)=O)nc2c(C)cccc12 (single isomer, unassigned) [Compound 32] | ≥ 5 |  | ≥ 5 |
| Cc1cc(O)cc(C)c1-c1cc(C(N)=O)nc2ccccc12 [Compound 130] | ≥ 5 |  | ≥ 5 |
| COc1nc2cc(C(N)=O)c(N)c(-c3cccc(O)c3C)c2nc1C [Compound 172] | 0.05 to 0.5 | 0.05 to 0.5 |  |
| Cc1ccc2c(-c3cccc(O)c3C)c(N)c(C(N)=O)nc2c1 [Compound 46, 3-Amino-4-(3-hydroxy-2-methylphenyl)-7-methylquinoline-2-carboxamide] | 1 to 5 |  | ≥ 5 |
| Cc1n[nH]c2cccc(-c3c(N)c(C(N)=O)cc4nccnc34)c12 [Compound 109, 7-Amino-8-(3-methyl-1H-indazol-4-yl)quinoxaline-6-carboxamide] | 0.05 to 0.5 |  | ≥ 5 |
| NC(=O)c1cc2nccnc2c(-c2c(Cl)ccc3[nH]ncc23)c1N [Compound 142] | 0.05 to 0.5 | 1 to 5 |  |
| Cc1ccc(O)c(C)c1-c1c(N)c(C(N)=O)nc2cccnc12 [Compound 3, 3-Amino-4-(3-hydroxy-2,6-dimethylphenyl)-1,5-naphthyridine-2-carboxamide] | < 0.05 |  | 0.05 to 0.5 |
| Cc1ccc2[nH]ncc2c1-c1c(N)c(C(N)=O)cc2ncccc12 [Compound 144] | 0.05 to 0.5 |  | 1 to 5 |
| Cc1ccc2[nH]nc(F)c2c1-c1c(N)c(C(N)=O)cc2nccnc12 [Compound 176] | 0.5 to 1 | ≥ 5 |  |
| Cc1ccc2[nH]ncc2c1-c1c(N)c(C(N)=O)nc2cccnc12 (single isomer, unassigned) [Compound 8, (M)-3-amino-4-(5-methyl-1H-indazol-4-yl)-1,5-naphthyridine-2-carboxamide] | ≥ 5 | ≥ 5 |  |
| Cc1ccc(O)c(C)c1-c1c(N)c(C(N)=O)nc2c(C(F)(F)F)cccc12 (single isomer, unassigned) [Compound 30, (M)-3-Amino-4-(3-hydroxy-2,6-dimethylphenyl)-8-(trifluoromethyl) quinoline-2-carboxamide] | 0.05 to 0.5 | < 0.05 |  |
| Cc1ccc(O)cc1-c1c(N)c(C(N)=O)cc2nccnc12 (atropisomer, axis not shown; (P)) [Compound 117, (P)-7-amino-8-(5-hydroxy-2-methylphenyl)quinoxaline-6-carboxamide] | 1 to 5 | ≥ 5 |  |
| Cc1c(O)cccc1-c1c(N)c(C(N)=O)nc2cccnc12 (single isomer, unassigned) [Compound 4, (P)-3-Amino-4-(3-hydroxy-2-methylphenyl)-1,5-naphthyridine-2-carboxamide] | < 0.05 | < 0.05 |  |

More lines, now with the values ahead:

| IC50 (PKMYT1) [µM] | IC50 ([1]; 4 hours) [µM] | IC50 ([1]; Homo sapiens, HCC1806, 4 h) [µM] | Structure (SMILES) |
| --- | --- | --- | --- |
| 0.05 to 0.5 |  | 1 to 5 | Cc1c(O)cccc1-c1c(N)c(C(N)=O)nc2cccc(C(N)=O)c12 [Compound 338] |
| 1 to 5 |  | ≥ 5 | Cc1ncc(O)c(C)c1-c1c(N)c(C(N)=O)nc2cccnc12 [Compound 256] |
| 1 to 5 |  | ≥ 5 | NC(=O)c1nc2cccnc2c(-c2ccc3c[nH]nc3c2)c1N [Compound 204] |
| 0.5 to 1 |  | ≥ 5 | COc1ncncc1-c1c(N)c(C(N)=O)nc2cccnc12 [Compound 231] |
| 0.05 to 0.5 | 0.05 to 0.5 |  | Cc1c(O)cc(Cl)cc1-c1c(N)c(C(N)=O)nc2cccnc12 (atropisomer, axis not shown) [Compound 290] |
| 1 to 5 | ≥ 5 |  | Cc1ccc(O)c(C)c1-c1c(N)c(C#N)cc2nccnc12 (atropisomer, axis not shown) [Compound 302] |
| 1 to 5 |  | ≥ 5 | Cc1ccc(O)c(C)c1-c1c(N)c(C#N)cc2nccnc12 [Compound 298] |
| 0.05 to 0.5 |  | ≥ 5 | Cc1ccncc1-c1c(N)c(C(N)=O)nc2cccnc12 [Compound 184] |
| 0.05 to 0.5 | 0.5 to 1 |  | Cc1ccc(-c2c(N)c(C(N)=O)nc3cccnc23)c(C)c1O [Compound 292] |
| 1 to 5 |  | ≥ 5 | Cc1ncncc1-c1c(N)c(C(N)=O)nc2cccnc12 [Compound 232] |
| ≥ 5 | ≥ 5 |  | Cc1cnc2c(-c3c(C)ccc(O)c3C)c(N)c(C(N)=O)cc2n1 (atropisomer, axis not shown) [Compound 223] |
| ≥ 5 | ≥ 5 |  | Cc1c(Cl)cncc1C1=c2ncccc2=NC(C(N)=O)C1N (stereo not drawn) [Compound 239] |
| ≥ 5 |  | ≥ 5 | NC(=O)c1nc2cccnc2c(-c2cccc3[nH]cnc23)c1N [Compound 181] |
| < 0.05 |  | 0.05 to 0.5 | NC(=O)c1nc2cccnc2c(-c2cncc(Cl)c2Cl)c1N [Compound 258] |
| 0.05 to 0.5 | 1 to 5 |  | Cc1ccc2[nH]nc(F)c2c1-c1c(N)c(C(N)=O)cc2nccnc12 (atropisomer, axis not shown) [Compound 300] |
| < 0.05 | 0.05 to 0.5 |  | Cc1c(O)cccc1-c1c(N)c(C(N)=O)cc2cc(Cl)cnc12 (atropisomer, axis not shown) [Compound 179] |
| ≥ 5 |  | ≥ 5 | Cc1cc(CO)ccc1-c1c(N)c(C(N)=O)nc2cccnc12 [Compound 221] |
| ≥ 5 |  | ≥ 5 | Cc1c(O)cccc1-c1c(N)c(C(N)=O)nc2nccc(Cl)c12 [Compound 261] |
| 0.05 to 0.5 |  | ≥ 5 | Cc1c(O)cc(O)cc1-c1c(N)c(C(N)=O)cc2nccnc12 [Compound 331] |
